From paper PMC4281105 (Journal of medicinal chemistry, 2014)
Read-outs that look alike come from different tables or passages of the source. Marks after values point to notes of the source that are not given here.

How the values were obtained:
RSV = assay: viral titer; assay type: cell-based, human respiratory syncytial virus; details: for log reduction at 10 µM: human respiratory syncytial virus, read-out: viral titer reduction at 10 µM
hRSV strain Long = assay: hRSV CPE assay; assay type: cell-based, human respiratory syncytial virus
[1] = human respiratory syncytial virus, HEp-2, read-out: RSV CPE potency ± standard deviation EC50, HEp-2 cells, hRSV strain Long, 10-point dose response
[2] = read-out: RSV CPE potency ± standard deviation EC50, HEp-2 cells, hRSV strain Long, 10-point dose response

COCCCNC(=O)c1ccc(Cn2c(=O)c3ccccc3n(Cc3ccc(C)cc3)c2=O)cc1 [Compound 2, N-(3-Methoxypropyl)-4-((1-(4-methylbenzyl)-2,4-dioxo-1,2-dihydroquinazolin-3(4H)-yl)methyl)benzamide]
log reduction at 10 µM (RSV): 4.2 | EC50 (hRSV strain Long; [1]): 2.14 µM | EC50 (hRSV strain Long; [2]): 2.1 ± 0.5 µM

COCCCNC(=O)c1ccc(Cn2c(=O)c3ccccc3n(Cc3ccccc3Br)c2=O)cc1 [Compound 8, 4-((1-(2-Bromobenzyl)-2,4-dioxo-1,2-dihydroquinazolin-3(4H)-yl)methyl)-N-(3-methoxypropyl)benzamide]
EC50 (hRSV strain Long; [1]): > 50 µM

COCCCNC(=O)c1ccc(Cn2c(=O)c3ccccc3n(Cc3cccc(Br)c3)c2=O)cc1 [Compound 9, 4-((1-(3-Bromobenzyl)-2,4-dioxo-1,2-dihydroquinazolin-3(4H)-yl)methyl)-N-(3-methoxypropyl)benzamide]
EC50 (hRSV strain Long; [1]): 2.2 ± 0.1 µM

COCCCNC(=O)c1ccc(Cn2c(=O)c3ccccc3n(Cc3ccc(Br)cc3)c2=O)cc1 [Compound 10, 4-((1-(4-Bromobenzyl)-2,4-dioxo-1,2-dihydroquinazolin-3(4H)-yl)methyl)-N-(3-methoxypropyl)benzamide]
log reduction at 10 µM (RSV): 4.1 | EC50 (hRSV strain Long; [1]): 0.9 ± 0.2 µM

COCCCNC(=O)c1ccc(Cn2c(=O)c3ccccc3n(Cc3ccc(F)cc3)c2=O)cc1 [Compound 12, 4-((1-(4-Fluorobenzyl)-2,4-dioxo-1,2-dihydroquinazolin-3(4H)-yl)-methyl)-N-(3-methoxypropyl)benzamide]
EC50 (hRSV strain Long; [1]): 5.1 ± 0.4 µM

COCCCNC(=O)c1ccc(Cn2c(=O)c3ccccc3n(Cc3ccc(Cl)cc3)c2=O)cc1 [Compound 13, 4-((1-(4-Chlorobenzyl)-2,4-dioxo-1,2-dihydroquinazolin-3(4H)-yl)methyl)-N-(3-methoxypropyl)benzamide]
log reduction at 10 µM (RSV): 3.1 | EC50 (hRSV strain Long; [1]): 6.7 ± 1.9 µM

COCCCNC(=O)c1ccc(Cn2c(=O)c3ccccc3n(Cc3ccc(OC)cc3)c2=O)cc1 [Compound 14, 4-((1-(4-Methoxybenzyl)-2,4-dioxo-1,2-dihydroquinazolin-3(4H)-yl)methyl)-N-(3-methoxypropyl)benzamide]
log reduction at 10 µM (RSV): 2.7 | EC50 (hRSV strain Long; [1]): 2 ± 0.9 µM

COCCCNC(=O)c1ccc(Cn2c(=O)c3ccccc3n(Cc3ccc([N+](=O)[O-])cc3)c2=O)cc1 [Compound 15, N-(3-Methoxypropyl)-4-((1-(4-nitrobenzyl)-2,4-dioxo-1,2-dihydroquinazolin-3(4H)-yl)methyl)benzamide]
viral titer reduction at 10 µM (RSV; compound at 10 µM): 5.6 ^f log | log reduction at 10 µM (RSV): 5.6 | EC50 (hRSV strain Long; [1]): 0.5 ± 0.05 µM | EC50 (hRSV strain Long; human respiratory syncytial virus, RSV CPE, as given in abstract): 0.3 to 0.5 µM

COCCCNC(=O)c1ccc(Cn2c(=O)c3ccccc3n(Cc3ccc(C(F)(F)F)cc3)c2=O)cc1 [Compound 16, 4-((2,4-Dioxo-1-(4-(trifluoromethyl)benzyl)-1,2-dihydroquinazolin-3(4H)-yl)methyl)-N-(3-methoxypropyl)benzamide]
log reduction at 10 µM (RSV): 2.7 | EC50 (hRSV strain Long; [1]): 1.3 ± 0.1 µM

COCCCNC(=O)c1ccc(Cn2c(=O)c3ccccc3n(Cc3ccc(C#N)cc3)c2=O)cc1 [Compound 17, 4-((1-(4-Cyanobenzyl)-2,4-dioxo-1,2-dihydroquinazolin-3(4H)-yl)methyl)-N-(3-methoxypropyl)benzamide]
log reduction at 10 µM (RSV): 4.2 | EC50 (hRSV strain Long; [1]): 1.3 ± 0.2 µM

CCc1ccc(Cn2c(=O)n(Cc3ccc(C(=O)NCCCOC)cc3)c(=O)c3ccccc32)cc1 [Compound 18, 4-((1-(4-Ethylbenzyl)-2,4-dioxo-1,2-dihydroquinazolin-3(4H)-yl)-methyl)-N-(3-methoxypropyl)benzamide]
log reduction at 10 µM (RSV): 5.9 | EC50 (hRSV strain Long; [1]): 1 ± 0.05 µM

COCCCNC(=O)c1ccc(Cn2c(=O)c3ccccc3n(Cc3ccc4nonc4c3)c2=O)cc1 [Compound 20, 4-((1-(Benzo[c][1,2,5]oxadiazol-5-ylmethyl)-2,4-dioxo-1,2-dihydroquinazolin-3(4H)-yl)methyl)-N-(3-methoxypropyl)benzamide]
log reduction at 10 µM (RSV): 2.1 | EC50 (hRSV strain Long; [1]): 4.9 ± 0.7 µM

COCCCNC(=O)c1ccc(Cn2c(=O)c3ccccc3n(Cc3cc(C)on3)c2=O)cc1 [Compound 21, N-(3-Methoxypropyl)-4-((1-((5-methylisoxazol-3-yl)methyl)-2,4-dioxo-1,2 dihydroquinazolin-3(4H)-yl)methyl)benzamide]
EC50 (hRSV strain Long; [1]): > 50 µM

COCCCNC(=O)c1ccc(Cn2c(=O)c3ccccc3n(Cc3ccccn3)c2=O)cc1 [Compound 22, 4-((2,4-Dioxo-1-(pyridin-2-ylmethyl)-1,2-dihydroquinazolin-3(4H)-yl)methyl)-N-(3-methoxypropyl)benzamide]
log reduction at 10 µM (RSV): 0.1 | EC50 (hRSV strain Long; [1]): > 50 µM

COCCCNC(=O)c1ccc(Cn2c(=O)c3ccccc3n(Cc3cccnc3)c2=O)cc1 [Compound 23, 4-((2,4-Dioxo-1-(pyridin-3-ylmethyl)-1,2-dihydroquinazolin-3(4H)-yl)methyl)-N-(3-methoxypropyl)benzamide]
log reduction at 10 µM (RSV): 0.9 | EC50 (hRSV strain Long; [1]): > 50 µM

CCOCCCNC(=O)c1ccc(Cn2c(=O)c3ccccc3n(Cc3ccc(C)cc3)c2=O)cc1 [Compound 24, N-(3-Ethoxypropyl)-4-((1-(4-methylbenzyl)-2,4-dioxo-1,2-dihydroquinazolin-3(4H)-yl)methyl)benzamide]
EC50 (hRSV strain Long; [1]): 1.9 ± 0.2 µM

Cc1ccc(Cn2c(=O)n(Cc3ccc(C(=O)NCCCOC(C)C)cc3)c(=O)c3ccccc32)cc1 [Compound 25, N-(3-Isopropoxypropyl)-4-((1-(4-methylbenzyl)-2,4-dioxo-1,2-dihydroquinazolin-3(4H)-yl)methyl)benzamide]
EC50 (hRSV strain Long; [1]): 2 ± 0.2 µM

Cc1ccc(Cn2c(=O)n(Cc3ccc(C(=O)NCCCN(C)C)cc3)c(=O)c3ccccc32)cc1 [Compound 26, N-(3-(Dimethylamino)propyl)-4-((1-(4-methylbenzyl)-2,4-dioxo-1,2-dihydroquinazolin-3(4H)-yl)methyl)benzamide]
EC50 (hRSV strain Long; [1]): 9.5 ± 0.4 µM

COCCCCNC(=O)c1ccc(Cn2c(=O)c3ccccc3n(Cc3ccc(C)cc3)c2=O)cc1 [Compound 27, N-(4-Methoxybutyl)-4-((1-(4-methylbenzyl)-2,4-dioxo-1,2-dihydroquinazolin-3(4H)-yl)methyl)benzamide]
log reduction at 10 µM (RSV): 2.1 | EC50 (hRSV strain Long; [1]): 0.8 ± 0.05 µM

COCCNC(=O)c1ccc(Cn2c(=O)c3ccccc3n(Cc3ccc(C)cc3)c2=O)cc1 [Compound 28, N-(2-Methoxyethyl)-4-((1-(4-methylbenzyl)-2,4-dioxo-1,2-dihydroquinazolin-3(4H)-yl)methyl)benzamide]
EC50 (hRSV strain Long; [1]): 2.2 ± 1.4 µM

Cc1ccc(Cn2c(=O)n(Cc3ccc(C(=O)N4CCOCC4)cc3)c(=O)c3ccccc32)cc1 [Compound 31, 1-(4-Methylbenzyl)-3-(4-(morpholine-4-carbonyl)benzyl)-quinazoline-2,4(1H,3H)-dione]
EC50 (hRSV strain Long; [1]): > 50 µM

Cc1ccc(Cn2c(=O)n(Cc3ccc(C(=O)N4CCCC4)cc3)c(=O)c3ccccc32)cc1 [Compound 32, 1-(4-Methylbenzyl)-3-(4-(pyrrolidine-1-carbonyl)benzyl)-quinazoline-2,4(1H,3H)-dione]
EC50 (hRSV strain Long; [1]): > 50 µM

Cc1ccc(Cn2c(=O)n(Cc3ccc(C(=O)N4CCCCC4)cc3)c(=O)c3ccccc32)cc1 [Compound 33, 1-(4-Methylbenzyl)-3-(4-(piperidine-1-carbonyl)benzyl)-quinazoline-2,4(1H,3H)-dione]
EC50 (hRSV strain Long; [1]): > 50 µM

CNC(=O)c1ccc(Cn2c(=O)c3ccccc3n(Cc3ccc(C)cc3)c2=O)cc1 [Compound 34, N-Methyl-4-((1-(4-methylbenzyl)-2,4-dioxo-1,2-dihydroquinazolin-3(4H)-yl)methyl)benzamide]
EC50 (hRSV strain Long; [1]): 2.2 ± 0.9 µM

Cc1ccc(Cn2c(=O)n(Cc3ccc(C(=O)N(C)C)cc3)c(=O)c3ccccc32)cc1 [Compound 35, N,N-Dimethyl-4-((1-(4-methylbenzyl)-2,4-dioxo-1,2-dihydroquinazolin-3(4H)-yl)methyl)benzamide]
EC50 (hRSV strain Long; [1]): > 50 µM

Cc1ccc(Cn2c(=O)n(Cc3ccc(C(=O)NC4CCCCC4)cc3)c(=O)c3ccccc32)cc1 [Compound 37, N-Cyclohexyl-4-((1-(4-methylbenzyl)-2,4-dioxo-1,2-dihydroquinazolin-3(4H)-yl)methyl)benzamide]
EC50 (hRSV strain Long; [1]): > 50 µM

Cc1ccc(Cn2c(=O)n(Cc3ccc(C(=O)Nc4ccccc4)cc3)c(=O)c3ccccc32)cc1 [Compound 38, 4-((1-(4-Methylbenzyl)-2,4-dioxo-1,2-dihydroquinazolin-3(4H)-yl)methyl)-N-phenylbenzamide]
EC50 (hRSV strain Long; [1]): > 50 µM

Cc1ccc(Cn2c(=O)n(Cc3ccc(C(=O)NCc4ccccc4)cc3)c(=O)c3ccccc32)cc1 [Compound 39, N-Benzyl-4-((1-(4-methylbenzyl)-2,4-dioxo-1,2-dihydroquinazolin-3(4H)-yl)methyl)benzamide]
EC50 (hRSV strain Long; [1]): > 50 µM

Cc1ccc(Cn2c(=O)n(Cc3ccc(C(=O)NCc4ccco4)cc3)c(=O)c3ccccc32)cc1 [Compound 40, N-(Furan-2-ylmethyl)-4-((1-(4-methylbenzyl)-2,4-dioxo-1,2-dihydroquinazolin-3(4H)-yl)methyl)benzamide]
EC50 (hRSV strain Long; [1]): > 50 µM

Cc1ccc(Cn2c(=O)n(Cc3ccc(C(=O)Nc4nccs4)cc3)c(=O)c3ccccc32)cc1 [Compound 41, 4-((1-(4-Methylbenzyl)-2,4-dioxo-1,2-dihydroquinazolin-3(4H)-yl)methyl)-N-(thiazol-2-yl)benzamide]
EC50 (hRSV strain Long; [1]): > 50 µM

COc1cc(NC(=O)c2ccc(Cn3c(=O)c4ccccc4n(Cc4ccc(C(C)C)cc4)c3=O)cc2)ccn1 [Compound 50, 4-((1-(4-Isopropylbenzyl)-2,4-dioxo-1,2-dihydroquinazolin-3(4H)-yl)methyl)-N-(2-methoxypyridin-4-yl)benzamide]
EC50 (hRSV strain Long; [1]): 0.5 ± 0.06 µM

COCCCNC(=O)c1ccc(Cn2c(Cc3cccc(C(C)C)c3)nc3ccccc3c2=O)cc1 [Compound 51, 4-((2-(3-Isopropylbenzyl)-4-oxoquinazolin-3(4H)-yl)methyl)-N-(3-methoxypropyl) benzamide]
EC50 (hRSV strain Long; [2]): > 50 µM

COCCCNC(=O)c1ccc(Cn2c(Cc3ccc(C(C)C)cc3)nc3ccccc3c2=O)cc1 [Compound 52, 4-((2-(4-Isopropylbenzyl)-4-oxoquinazolin-3(4H)-yl)methyl)-N-(3-methoxypropyl)benzamide]
EC50 (hRSV strain Long; [1]): > 50 µM
